# Paper PMC4890880 (ACS infectious diseases, 2016)
# Like-named read-outs stand apart in the source and are kept apart here.
# Tests used:
# [1] = tested on: HepG2-A16-CD81EGFP cells; details: for IC50: read-out: Tox_IC50, HepG2 cytotoxicity
# [2] = tested on: Plasmodium berghei (Pb-Luc) exoerythrocytic-stage parasites; details: for IC50: read-out: PbLuc_IC50
# [3] = 2nd round, maximal inhibition in dose series
# [4] = sheet 2nd round, maximal inhibition in dose response
# [5] = first series of columns, fraction of control
# [6] = sheet 2nd round, Pb-Luc exoerythrocytic stage, 10-point dose response, top concentration 10
# [7] = second series of columns (replicate), fraction of control
compound,measurement,setting,value
C[C@@H]1CN([C@H](C)CO)C(=O)c2cccc(NC(=O)c3ccc(-c4nccs4)cc3)c2O[C@H]1CN(C)C(=O)Nc1ccc(C(F)(F)F)cc1 [BRD-K64517877-001-01-9],Tox_max_inhibition (%),[1]; [3],9%
same,IC50,"[1]; 2nd round, unit inferred",> 10 µM
same,PbLuc_max_inhibition (%),[2]; [3],27%
same,normalized signal at 0.000508053 (first series),"[2]; concentration 0.000508053, first replicate series, fraction of control",0.8077
same,normalized signal at 0.000508053 (second series),"[2]; concentration 0.000508053, second replicate series, fraction of control",1.002
same,normalized signal at 0.00152416 (first series),"[2]; concentration 0.00152416, first replicate series, fraction of control",0.8666
same,normalized signal at 0.00152416 (second series),"[2]; concentration 0.00152416, second replicate series, fraction of control",0.9304
same,normalized signal at 0.00457247 (first series),"[2]; concentration 0.00457247, first replicate series, fraction of control",0.8925
same,normalized signal at 0.00457247 (second series),"[2]; concentration 0.00457247, second replicate series, fraction of control",0.7834
same,normalized signal at 0.0137174 (first series),"[2]; concentration 0.0137174, first replicate series, fraction of control",1.197
same,normalized signal at 0.0137174 (second series),"[2]; concentration 0.0137174, second replicate series, fraction of control",0.7634
same,normalized signal at 0.0411523 (first series),"[2]; concentration 0.0411523, first replicate series, fraction of control",0.9517
same,normalized signal at 0.0411523 (second series),"[2]; concentration 0.0411523, second replicate series, fraction of control",0.9123
same,normalized signal at 0.123457 (first series),"[2]; concentration 0.123457, first replicate series, fraction of control",1.1239
same,normalized signal at 0.123457 (second series),"[2]; concentration 0.123457, second replicate series, fraction of control",0.9202
same,normalized signal at 0.37037 (first series),"[2]; concentration 0.37037, first replicate series, fraction of control",0.912
same,normalized signal at 0.37037 (second series),"[2]; concentration 0.37037, second replicate series, fraction of control",0.776
same,normalized signal at 1.11111 (first series),"[2]; concentration 1.11111, first replicate series, fraction of control",0.8174
same,normalized signal at 1.11111 (second series),"[2]; concentration 1.11111, second replicate series, fraction of control",0.8082
same,normalized signal at 3.33333 (first series),"[2]; concentration 3.33333, first replicate series, fraction of control",0.9935
same,normalized signal at 3.33333 (second series),"[2]; concentration 3.33333, second replicate series, fraction of control",0.7269
same,normalized signal at 10 (first series),"[2]; concentration 10, first replicate series, fraction of control",1.005
same,normalized signal at 10 (second series),"[2]; concentration 10, second replicate series, fraction of control",0.7551
same,IC50,"[2]; 2nd round, Broad DOS compounds, unit not printed (dose series head 10 to 0.000508053)",> 10 µM
COc1ccccc1NC(=O)N1C[C@@H]2N[C@H](C1)C2c1ccc(/C=C/c2ccccc2)cc1 (stereo partly drawn) [BRD-K72765192-019-01-4],IC50,[1]; sheet 2nd round,> 10 µM
same,Tox_max_inhibition (%),[1]; [4],5.61%
same,normalized signal at concentration 0.000508053,[2]; [5],0.9244
same,normalized signal at concentration 0.00152416,[2]; [5],0.9767
same,normalized signal at concentration 0.00457247,[2]; [5],0.9222
same,normalized signal at concentration 0.0137174,[2]; [5],1.063
same,normalized signal at concentration 0.0411523,[2]; [5],0.9659
same,normalized signal at concentration 0.123457,[2]; [5],0.9808
same,normalized signal at concentration 0.37037,[2]; [5],1.083
same,normalized signal at concentration 1.11111,[2]; [5],0.9875
same,normalized signal at concentration 3.33333,[2]; [5],1.091
same,normalized signal at concentration 10,[2]; [5],0.9372
same,IC50,[2]; [6],> 10 µM
same,normalized signal at concentration 0.000508053,[2]; [7],0.82
same,normalized signal at concentration 0.00152416,[2]; [7],0.9053
same,normalized signal at concentration 0.00457247,[2]; [7],1.027
same,normalized signal at concentration 0.0137174,[2]; [7],0.8721
same,normalized signal at concentration 0.0411523,[2]; [7],0.9154
same,normalized signal at concentration 0.123457,[2]; [7],0.911
same,normalized signal at concentration 0.37037,[2]; [7],1.02
same,normalized signal at concentration 1.11111,[2]; [7],0.9038
same,normalized signal at concentration 3.33333,[2]; [7],0.8733
same,normalized signal at concentration 10,[2]; [7],0.8146
same,PbLuc_max_inhibition (%),[2]; [4],19%
CO[C@H]1CN(C)C(=O)c2cc(NC(=O)c3cccc(F)c3)ccc2OC[C@H](C)N(C)C[C@H]1C [BRD-K79512815-001-01-8],IC50,[1]; sheet 2nd round,> 10 µM
same,Tox_max_inhibition (%),[1]; [4],6%
same,normalized signal at concentration 0.000508053,[2]; [5],0.92
same,normalized signal at concentration 0.00152416,[2]; [5],0.8929
same,normalized signal at concentration 0.00457247,[2]; [5],0.8757
same,normalized signal at concentration 0.0137174,[2]; [5],1.1664
same,normalized signal at concentration 0.0411523,[2]; [5],0.9194
same,normalized signal at concentration 0.123457,[2]; [5],0.814
same,normalized signal at concentration 0.37037,[2]; [5],0.9475
same,normalized signal at concentration 1.11111,[2]; [5],0.9407
same,normalized signal at concentration 3.33333,[2]; [5],0.9302
same,normalized signal at concentration 10,[2]; [5],0.6026
same,IC50,[2]; [6],> 10 µM
same,normalized signal at concentration 0.000508053,[2]; [7],0.9673
same,normalized signal at concentration 0.00152416,[2]; [7],1.022
same,normalized signal at concentration 0.00457247,[2]; [7],0.9573
same,normalized signal at concentration 0.0137174,[2]; [7],0.903
same,normalized signal at concentration 0.0411523,[2]; [7],0.8874
same,normalized signal at concentration 0.123457,[2]; [7],0.788
same,normalized signal at concentration 0.37037,[2]; [7],0.9616
same,normalized signal at concentration 1.11111,[2]; [7],0.8772
same,normalized signal at concentration 3.33333,[2]; [7],0.9295
same,normalized signal at concentration 10,[2]; [7],0.8924
same,PbLuc_max_inhibition (%),[2]; [4],40%
